Reference: ChEMBL document CHEMBL4138123, “Design, synthesis and biological evaluation of novel pyrazolochalcones as potential modulators of PI3K/Akt/mTOR pathway and inducers of apoptosis in breast cancer cells” (Eur J Med Chem, 2017)

Experiments:
HCT-15 = assay: Cytotoxicity against human HCT15 cells assessed as cell growth at 1 uM after 48 hrs by sulforhodamine B assay relative to control; assay type: functional; details: HCT-15, 48 h, read-out: Activity
SW-620 = assay: Cytotoxicity against human SW620 cells assessed as cell growth at 1 uM after 48 hrs by sulforhodamine B assay relative to control; assay type: functional; details: SW-620, 48 h, read-out: Activity
HL-60(TB) = assay: Cytotoxicity against human HL-60(TB) cells assessed as cell growth at 0.01 uM after 48 hrs by sulforhodamine B assay relative to control; assay type: functional; details: HL-60, 48 h, read-out: Activity
SF-268 = assay: Cytotoxicity against human SF268 cells assessed as cell growth at 100 uM after 48 hrs by sulforhodamine B assay relative to control; assay type: functional; details: SF-268, 48 h, read-out: Activity
MCF7 [1] = assay: Cytotoxicity against human MCF7 cells assessed as growth inhibition after 48 hrs by MTT assay; assay type: functional, cell-based; details: MCF7, 48 h
OVCAR-4 = assay: Cytotoxicity against human OVCAR4 cells assessed as cell growth at 100 uM after 48 hrs by sulforhodamine B assay relative to control; assay type: functional; details: OVCAR-4, 48 h, read-out: Activity
NCI-H522 = assay: Cytotoxicity against human NCI-H522 cells assessed as cell growth at 1 uM after 48 hrs by sulforhodamine B assay relative to control; assay type: functional; details: NCI-H522, 48 h, read-out: Activity
KM12 = assay: Cytotoxicity against human KM12 cells assessed as cell growth at 0.1 uM after 48 hrs by sulforhodamine B assay relative to control; assay type: functional; details: KM12, 48 h, read-out: Activity
A549 = assay: Cytotoxicity against human A549/ATCC cells assessed as cell growth at 1 uM after 48 hrs by sulforhodamine B assay relative to control; assay type: functional; details: A549, 48 h, read-out: Activity
UO-31 = assay: Cytotoxicity against human UO31 cells assessed as cell growth at 100 uM after 48 hrs by sulforhodamine B assay relative to control; assay type: functional; details: UO-31, 48 h, read-out: Activity
Hs-578T = assay: Cytotoxicity against human Hs 578T cells assessed as cell growth at 100 uM after 48 hrs by sulforhodamine B assay relative to control; assay type: functional; details: read-out: Activity
MDA-MB-435 = assay: Cytotoxicity against human MDA-MB-435 cells assessed as cell growth at 0.01 uM after 48 hrs by sulforhodamine B assay relative to control; assay type: functional; details: MDA-MB-435, 48 h, read-out: Activity
NCI-H226 = assay: Cytotoxicity against human NCI-H226 cells assessed as growth inhibition after 48 hrs by sulforhodamine B assay; assay type: functional; details: NCI-H226, 48 h
NCI-H460 = assay: Cytotoxicity against human NCI-H460 cells assessed as growth inhibition after 48 hrs by sulforhodamine B assay; assay type: functional; details: NCI-H460, 48 h
COLO 205 = assay: Cytotoxicity against human COLO205 cells assessed as cell growth at 10 uM after 48 hrs by sulforhodamine B assay relative to control; assay type: functional; details: COLO 205, 48 h, read-out: Activity
SK-MEL-5 [2] = assay: Cytotoxicity against human SK-MEL-5 cells assessed as cell growth at 1 uM after 48 hrs by sulforhodamine B assay relative to control; assay type: functional; details: SK-MEL-5, 48 h, read-out: Activity
NCI/ADR-RES [3] = assay: Cytotoxicity against human NCI/ADR-RES cells assessed as cell growth at 0.01 uM after 48 hrs by sulforhodamine B assay relative to control; assay type: functional; details: read-out: Activity
CCRF-CEM [4] = assay: Cytotoxicity against human CCRF-CEM cells assessed as cell growth at 10 uM after 48 hrs by sulforhodamine B assay relative to control; assay type: functional; details: read-out: Activity
M14 = assay: Cytotoxicity against human M14 cells assessed as growth inhibition after 48 hrs by sulforhodamine B assay; assay type: functional; details: M14, 48 h
CCRF-CEM [5] = assay: Cytotoxicity against human CCRF-CEM cells assessed as cell growth at 0.1 uM after 48 hrs by sulforhodamine B assay relative to control; assay type: functional; details: read-out: Activity
SK-MEL-5 [6] = assay: Cytotoxicity against human SK-MEL-5 cells assessed as growth inhibition after 48 hrs by sulforhodamine B assay; assay type: functional; details: SK-MEL-5, 48 h
HCT-116 = assay: Cytotoxicity against human HCT116 cells assessed as cell growth at 1 uM after 48 hrs by sulforhodamine B assay relative to control; assay type: functional; details: HCT-116, 48 h, read-out: Activity
MDA-MB-231 = assay: Cytotoxicity against human MDA-MB-231 cells assessed as cell growth at 10 uM after 48 hrs by sulforhodamine B assay relative to control; assay type: functional; details: MDA-MB-231, 48 h, read-out: Activity
SNB-19 = assay: Cytotoxicity against human SNB19 cells assessed as cell growth at 10 uM after 48 hrs by sulforhodamine B assay relative to control; assay type: functional; details: SNB-19, 48 h, read-out: Activity
T47D = assay: Cytotoxicity against human T47D cells assessed as cell growth at 0.01 uM after 48 hrs by sulforhodamine B assay relative to control; assay type: functional; details: read-out: Activity
U-251 [7] = assay: Cytotoxicity against human U251 cells assessed as cell growth at 100 uM after 48 hrs by sulforhodamine B assay relative to control; assay type: functional; details: U-251, 48 h, read-out: Activity
OVCAR-5 [8] = assay: Cytotoxicity against human OVCAR5 cells assessed as cell growth at 100 uM after 48 hrs by sulforhodamine B assay relative to control; assay type: functional; details: OVCAR-5, 48 h, read-out: Activity
PC-3 = assay: Cytotoxicity against human PC3 cells assessed as cell growth at 0.01 uM after 48 hrs by sulforhodamine B assay relative to control; assay type: functional; details: PC-3, 48 h, read-out: Activity
NCI/ADR-RES [9] = assay: Cytotoxicity against human NCI/ADR-RES cells assessed as cell growth at 1 uM after 48 hrs by sulforhodamine B assay relative to control; assay type: functional; details: read-out: Activity
SN12C = assay: Cytotoxicity against human SN12C cells assessed as cell growth at 0.1 uM after 48 hrs by sulforhodamine B assay relative to control; assay type: functional; details: read-out: Activity
U-251 [10] = assay: Cytotoxicity against human U251 cells assessed as growth inhibition after 48 hrs by sulforhodamine B assay; assay type: functional; details: U-251, 48 h
OVCAR-3 = assay: Cytotoxicity against human OVCAR3 cells assessed as cell growth at 0.01 uM after 48 hrs by sulforhodamine B assay relative to control; assay type: functional; details: OVCAR-3, 48 h, read-out: Activity
MCF7 [11] = assay: Cytotoxicity against human MCF7 cells assessed as cell growth at 1 uM after 48 hrs by sulforhodamine B assay relative to control; assay type: functional; details: MCF7, 48 h, read-out: Activity
786-0 = assay: Cytotoxicity against human 786-0 cells assessed as cell growth at 1 uM after 48 hrs by sulforhodamine B assay relative to control; assay type: functional; details: 786-0, 48 h, read-out: Activity
OVCAR-5 [12] = assay: Cytotoxicity against human OVCAR5 cells assessed as cell growth at 10 uM after 48 hrs by sulforhodamine B assay relative to control; assay type: functional; details: OVCAR-5, 48 h, read-out: Activity

COc1cc(C(=O)/C=C/c2cc(-c3ccc4c(c3)OCO4)n[nH]2)cc(OC)c1OC
growth at 1 µM (HCT-15): 77% | growth at 1 µM (SW-620): 78% | growth at 0.01 µM (HL-60(TB)): 99% | growth at 100 µM (SF-268): -89% | IC50 (MCF7 [1]): 0.85 µM | growth at 100 µM (OVCAR-4): -100% | growth at 1 µM (NCI-H522): 80% | growth at 0.1 µM (KM12): 93% | growth at 1 µM (A549): 85% | growth at 100 µM (UO-31): -95% | growth at 100 µM (Hs-578T): -22% | growth at 0.01 µM (MDA-MB-435): 96% | GI50 (NCI-H226): 1.52 µM | LC50 (concentration killing 50% of cells) (NCI-H226): > 100 µM | TGI (NCI-H226): 4.25 µM | GI50 (NCI-H460): 1.81 µM | LC50 (NCI-H460): 7.84 µM | TGI (NCI-H460): 3.77 µM | growth at 10 µM (COLO 205): -47% | growth at 1 µM (SK-MEL-5 [2]): 89% | growth at 0.01 µM (NCI/ADR-RES [3]): 95% | growth at 10 µM (CCRF-CEM [4]): -26% | GI50 (M14): 2.91 µM | LC50 (concentration killing 50% of cells) (M14): 37.8 µM | TGI (M14): 9.21 µM | growth at 0.1 µM (CCRF-CEM [5]): 98% | GI50 (SK-MEL-5 [6]): 3.32 µM | LC50 (concentration killing 50% of cells) (SK-MEL-5 [6]): 37.7 µM | TGI (SK-MEL-5 [6]): 13.3 µM | growth at 1 µM (HCT-116): 86% | growth at 10 µM (MDA-MB-231): -22% | growth at 10 µM (SNB-19): 7% | growth at 0.01 µM (T47D): 90% | growth at 100 µM (U-251 [7]): -98% | growth at 100 µM (OVCAR-5 [8]): -56% | growth at 0.01 µM (PC-3): 97% | growth at 1 µM (NCI/ADR-RES [9]): 94% | growth at 0.1 µM (SN12C): 96% | GI50 (U-251 [10]): 1.21 µM | LC50 (U-251 [10]): 5.13 µM | TGI (U-251 [10]): 2.49 µM | growth at 0.01 µM (OVCAR-3): 98% | growth at 1 µM (MCF7 [11]): 53% | growth at 1 µM (786-0): 98% | growth at 10 µM (OVCAR-5 [12]): -2%
